Test results published in patent US20100221821A1, “METHODS AND COMPOSITIONS RELATED TO RIBOSWITCHES THAT CONTROL ALTERNATIVE SPLICING AND RNA PROCESSING” (YALE UNIVERSITY, priority 2007, published 2010).
Read-outs that look alike come from different tables or passages of the source. Each block holds one compound with its values, some of them ahead of it.

Legend:
[1] = system: altered TPP aptamer in THIC-III RNA from A. thaliana; assay: In-line probing of TPP binding by the spliced (altered) TPP aptamer of THIC type III RNA; parameters: species or system Arabidopsis thaliana
Description: (B) In-line probing analysis of TPP binding by the spliced aptamer depicted in (A). Lanes include RNAs loaded after no reaction (NR), after partial digestion with RNase T1 (T1), or after partial digestion with alkali (^−OH). Sites 1 and 2 were quantified to establish the KD as shown in (C). (C) Plot indicating the normalized fraction of RNA spontaneously cleaved versus the concentration of TPP for sites 1 and 2 in (B).
In-line probing (Soukup and Breaker, 1999) was used to determine whether this altered aptamer retains TPP binding activity.
In-line probing assays were conducted essentially as described previously (Sudarsan et al., 2003; Winkler et al., 2002). […] For in-line probing analysis, the labeled RNA was incubated at room temperature for 40 hours in 50 mM Tris-HCl (pH 8.3 at 23° C.), 20 mM MgCl2, and 100 mM KCl in the absence or presence of varying concentrations of TPP. Cleavage products were resolved by denaturing 10% PAGE, visualized by PhosphorImager (GE Healthcare), and quantitated using ImageQuant software. The apparent KD value, reflecting the concentration of TPP needed to half-maximally modulate RNA structure, was determined by plotting the normalized fraction of RNA cleaved versus the logarithm of TPP concentration.

[2] = molecular target: full-length TPP aptamer from A. thaliana; settings: read-out: apparent dissociation constant (KD) of full-length aptamer for TPP; cited from earlier work
[3] = system: TPP aptamer with 5' splice site region of THIC mRNA from A. thaliana; assay: In-line probing of TPP aptamer with 5' flank (nts -14-261 relative to 5' splice site); assay type: binding, Arabidopsis thaliana; settings: 10 μM TPP
Description: (A) TPP causes changes in RNA structure near to the 5′ splice site, which is important for the formation of THIC type III RNA. For in-line probing, a 5′ ^32P-labelled RNA starting 14 nts upstream of the 5′ splice site (+1) and expanding to the 3′ end of the TPP aptamer (nucleotides-14-261) from A. thaliana was incubated in the absence (−) or presence (+) of 10 μM TPP and the resulting spontaneous cleavage products were separated by polyacrylamide gel electrophoresis. Markers are RNAs partially digested with RNase T1 (T1) or alkali (^−OH). The graph depicts the relative band intensities in the lanes indicated. (B) Base-pairing potential between the 5′ splice site region and the P4-P5 stems of the TPP aptamer (SEQ ID NOs:34-47; complementary nucleotides are shaded). Stretches of complementary nucleotides are also present in all other plant THIC mRNA sequences available. […]
In-line probing assays were conducted essentially as described previously (Sudarsan et al., 2003; Winkler et al., 2002). […] Cleavage products were resolved by denaturing 10% PAGE, visualized by PhosphorImager (GE Healthcare), and quantitated using ImageQuant software. The apparent KD value, reflecting the concentration of TPP needed to half-maximally modulate RNA structure, was determined by plotting the normalized fraction of RNA cleaved versus the logarithm of TPP concentration.

[4] = system: THIC transcripts; settings: seedlings on thiamin-supplemented medium
Description: (§1) (A) qRT-PCR analysis was conducted on THIC transcripts from A. thaliana seedlings grown for 14 days on medium supplemented with 0, 0.1, and 1 mM thiamin. Total THIC transcripts and separately types I, II and III RNAs were detected using different primer combinations. cDNAs were generated using a polyT primer or random hexamers for detection of type I RNAs. Expression was normalized for each primer combination to the value measured using medium with no thiamin supplementation (open bars). Values are averages from three independent experiments and error bars represent standard deviation. (B) Northern blot analysis of THIC transcripts from the same samples described in (A). 20 μg total RNA was loaded per lane and analyzed using probes binding to the coding region of THIC, the extended 3′ UTR of types I and III RNAs, or the control transcript EIF4A1. […] (C) qRT-PCR analysis of the time-dependent effects of thiamin treatment on THIC transcripts from A. thaliana. Seedlings were grown for 14 days on thiamin free medium and subsequently sprayed with 50 μM thiamin and 0.25 mg ml^−1 Tween 80. Control seedlings were treated with a solution containing only Tween 80. Samples were collected after 4 h and 26 h and subjected to qRT-PCR analysis. Amounts of THIC transcripts were analyzed from cDNAs generated with polyT primer and normalized to the values of the control samples without application of thiamin (open bars). Values are averages from three independent experiments and error bars represent standard deviation. (D) Relative changes of the levels of THIC transcript types in wild-type (WT) and thiamin pyrophosphokinase double knockout (TPK-KO) A. thaliana plants. Seedlings were grown for 12 days on thiamin free medium and amounts of THIC transcript types were analyzed by qRT-PCR. Data were normalized to the values for the WT samples and reflect averages from three replicates, with error bars representing standard deviation.

[5] = system: THIC promoter from A. thaliana; settings: 100 μM thiamin, 9 day old seedlings
Description: A construct consisting of a 1595 by fragment of the THIC promoter from A. thaliana was fused to the reporter gene β-glucuronidase (GUS) and transformed into A. thaliana. […] Data are mean values from three different transgenic lines and from three independent experiments. Error bars represent standard deviation.

[6] = system: THIC TPP riboswitch (3' region of AtTHIC fused to EGFP)
Description: (A) Leaves from stably transformed A. thaliana lines expressing a reporter fusion of the complete 3′ region of AtTHIC fused to the 3′ end of EGFP were abscised and incubated with the petioles in water or in water supplemented with 0.02% thiamin. EGFP fluorescence was assessed at 0 h, 48 h, and 72 h after onset of treatment. One representative set of data from three repeats is shown, and the numbers identify different leaves from one transgenic line. (B) Quantitation of EGFP fluorescence of leaves depicted in (A) at three time points. The data represent average fluorescence intensity and standard deviation for each leaf. The plot also depicts average background fluorescence of WT leaves. (C) qRT-PCR analysis of total EGFP and THIC transcripts from leaves incubated for 72 h in water or 0.02% thiamin. Transcript amounts were standardized to an internal reference transcript and normalized to transcript abundance in water treated samples. Values are averages from four independent experiments using different transgenic lines and error bars represent standard deviation. (D,E) RT-PCR analysis of different 3′ UTRs of EGFP and THIC transcript types from A. thaliana reporter transformants grown in the absence of exogenous thiamin. For cDNA generation, a polyT primer, random hexamers or two different gene specific primers (binding either 221 or 882 nts downstream of the end of the aptamer) were used as indicated. The forward primers were specific for the end of the last exon of the coding region of EGFP (left) or THIC (right), whereas the reverse primer was either a polyT primer (D) or homologous to a region 221 nts downstream of the end of the aptamer (E). RT-PCR products were separated and visualized as described in the description of FIG. 2. M designates the marker lanes containing DNAs of 100 base-pair increments. No RT indicates a control reaction using the RNA without reverse transcription as a template source. I-1 and I-2 represent type I RNAs with the upstream intron following the stop codon unspliced or spliced, respectively.
(A) Secondary structure model and sequence of the WT TPP aptamer from A. thaliana genomic sequence and located in the 3′ region of THIC that was fused to EGFP (SEQ ID NOs: 32 and 33). […] (B) Quantitation of EGFP fluorescence in leaves from A. thaliana transformants expressing reporter constructs containing the WT aptamer sequence or mutated versions M2, M3 and M4. Leaves were excised and incubated with their petioles in water or 0.02% thiamin for 72 h before fluorescence analysis. Values are averages from at least three independent experiments using different transgenic lines. Error bars represent standard deviation. (C) qRT-PCR analyses of EGFP and THIC transcript amounts in A. thaliana transformants described in (B). Transcript amounts (standardized using a reference transcript) were normalized to transcript abundance in water treated samples. Values are averages from two to four independent experiments using different transgenic lines. Error bars represent standard deviation. (D,E) RT-PCR analyses of 3′ UTRs of EGFP and THIC transcripts from A. thaliana transformants with mutations M2 or M3. RT-PCR analyses were performed as described in the description of FIGS. 5D and 5E. Forward primers were homologous to the end of the last exon of the coding region of EGFP or THIC, and the reverse primer was a polyT primer (D) or complementary to a region 221 nts downstream of the end of the aptamer (E). Kbp designates kilobase pairs.

[7] = system: THIC transcripts
Description: as §1
(A) qRT-PCR analysis of total THIC transcripts from plants incubated for 48 h under continuous light. Plants were grown for 11 days in light/dark cycles (16/8 h) on medium without thiamin or medium supplemented with 100 μM thiamin. On the morning of the 12th day, plants were transferred to continuous light and samples were taken every 3 hours. Expression was normalized to the value of the sample at time point 0 from plants grown on thiamin free medium. Error bars represent standard deviation of triplicate qRT-PCR analyses. […] (B) qRT-PCR analysis of THIC type III RNAs. Plant material and data normalization are as described for (A).
The amount of THIC transcripts was established by using quantitative RT-PCR (qRT-PCR) to address whether transcript levels respond to increased thiamin concentrations. A. thaliana seedlings were supplemented with various amounts of thiamin and the different THIC transcript types were detected using specific primer combinations. The primer combination amplifying THIC-II also can bind to a subset of THIC-I RNAs that have undergone splicing of the first 3′ UTR intron.
Arabidopsis thaliana ecotype Columbia-0 plants were grown with soil at 23° C. in a growth chamber under 16/8 h (light/dark) photoperiod with 60% humidity unless otherwise stated. For seedling experiments, plants were grown on basal MS medium (Murashige and Skoog, 1962) supplemented with 2% sucrose and varying concentrations of thiamin and under continuous light unless otherwise specified. N. benthamiana plants for leaf infiltration assays were grown on soil for 3 to 5 weeks under continuous light.

[8] = 26 h after spraying with 50 μM thiamin
[9] = four hours after spraying seedlings with 50 μM thiamin

- loss in ligand-binding affinity versus full-length aptamer ([1]; altered aptamer vs full-length aptamer): more than three orders of magnitude
- Kd ([1]; in-line probing, spliced aptamer of THIC-III, read-out: apparent KD of the altered aptamer for TPP): ~60 µM
- TPP binding by mutant M1 of the altered aptamer ([1]; mutation M1 in type III construct): completely abolish TPP binding
- TPP binding by mutant M2 of the altered aptamer ([1]; mutation M2 in type III construct): completely abolish TPP binding
Compound: Cc1ncc(C[n+]2csc(CCO[P@](=O)(O)OP(=O)(O)O)c2C)c(N)n1 [TPP, thiamine pyrophosphate]
- Kd [2]: ~0.05 µM
- structural modulation of nucleotides near the 5' splice site [3]: increase in structural flexibility

- binding to the altered aptamer ([1]; data not shown): does not bind
Compound: Cc1ncc(C[n+]2csc(CCO)c2C)c(N)n1 [thiamin]
- THIC-I RNA levels (Northern blot) [4]: remain relatively unchanged
- THIC-III RNA levels (Northern blot) [4]: remain relatively unchanged
- THIC-II levels (Northern blot) ([4]; same samples as FIG. 3A): decrease
- expression of reporter gene (GUS) driven by the THIC promoter [5]: not altered
- amount of endogenous THIC transcripts relative to control levels ([6]; 0.02% thiamin, 72 h, qRT-PCR): approximately 20%
- amount of EGFP transcripts relative to control levels ([6]; WT construct, 0.02% thiamin, 72 h, qRT-PCR): approximately 20%
- EGFP fluorescence in leaves ([6]; WT construct, 0.02% thiamin, rosette stage leaves): decreased
- responsiveness of reporter to thiamin application compared to WT construct ([6]; mutant aptamer M2, 0.02% thiamin 72 h): reduced
- responsiveness of reporter to thiamin application compared to WT construct ([6]; mutant aptamer M3, 0.02% thiamin 72 h): complete loss
- responsiveness of reporter to thiamin application compared to WT construct ([6]; mutant aptamer M4, 0.02% thiamin 72 h): complete loss
- THIC-II level [7, 8]: decreased even further
- total THIC RNA level [7, 8]: decreased even further
- increase in THIC-III ([7]; after spraying with 50 μM thiamin, early phase (4 h)): more pronounced in the early phase
- THIC-II amount relative to absence of added thiamin [7, 9]: 50%
- total THIC RNA amount relative to absence of added thiamin [7, 9]: 50%
- THIC-I transcripts copy number ([7]; medium containing 1 mM thiamin): little or no change
- THIC-II transcripts ([7]; medium containing 1 mM thiamin): equivalent reduction
- THIC-III transcripts copy number ([7]; medium containing 1 mM thiamin): little or no change
- circadian rhythm of THIC expression ([7]; medium supplemented with 100 μM thiamin, continuous light 48 h): not affected
- total amount of THIC transcripts relative to seedlings grown without thiamin supplementation ([7]; seedlings grown on medium containing 1 mM thiamin, 14 days): approximately 20%
